How the values were obtained:
human LOX-1 = target: T1, human LOX-1 (Homo sapiens, UniProt P78380); assay: DiI-oxLDL binding to LOX-1-CHO cells (4 ℃, 45 min); assay type: cell-based
T1 construct: expressed in transfected cells; host or cells: CHO-K1 (LOX-1-CHO), doxycycline-induced
Protocol: Tetracycline-inducible human LOX-1 (tagged with V5-6×His at C-terminus) expressing CHO-K1 (LOX-1-CHO) cells were maintained as previously described.[8]) The cells were seeded in 96-well plate at 10^4 cells/well in the presence of doxycycline (1 µg/mL) (Calbiochem, La Jolla, CA, USA) and were incubated in Ham’s F-12 medium containing 10% FBS at 37 ℃ for 24 h. After being washed with the medium without FBS, the cells were treated with foodstuff extracts or an anti-LOX-1 antibody at the final concentration of 10 µg/mL for 1 h. […] After washing, the cells were fixed with 10% formalin, and were stained with 4′,6-diamidino-2-phenylindole (DAPI) (Sigma, St. Louis, MO, USA). The binding of DiI-oxLDL to LOX-1-CHO cells were determined similarly to the uptake assay, except that the incubation of DiI-oxLDL was performed at 4 ℃ for 45 min. The samples were subjected to fluorescence microscopic analysis (Axiovert 200M, Zeiss, Oberkochen, Germany) or quantitative fluorescence analysis using the IN Cell analyzer system (GE Healthcare, Fairfield, CT, USA). Cell-associated DiI-oxLDL was determined as a ratio of DiI-oxLDL fluorescence intensity per cell in the presence of foodstuff extracts to that in the absence of extracts. All experiments were conducted in more than triplicates. For the determination of fluorescence quenching by procyanidins, the fluorescence was also measured before washing out unbound DiI-oxLDL (Spectramax, Molecular Devices, Sunnyvale, CA, USA). The final concentration of DMSO was less than 0.1% of total volume.

[1] = Plasma concentrations of procyanidin B2 and C1 in rats given OPC; assay type: in vivo; conditions: male, stroke-prone spontaneously hypertensive (SHR-SP), rat, po, 0.5 % (w/v) OPC in drinking saline, rats given 0.5% OPC orally in drinking saline for two days, sampled 7:00–8:00
Protocol: All protocols were approved by the Institutional Animal Care and Use Committee of the National Cerebral and Cardiovascular Center. Animals were individually housed at 23 ± 2 ℃ with 12 h light-dark cycles (7:00–19:00 light-on). Eight-week-old male stroke-prone spontaneously hypertensive rats (SHR-SP) (CLEA Japan, Tokyo, Japan) were divided into two groups (n = 8 each) with similar blood pressure, heart rates and body weights (tail cuff and pulse transducer system, BP-98A, Softron, Tokyo, Japan). They were given high fat diet without cholic acid or vitamin E (CLEA Japan, Tokyo, Japan) and physiological saline as drinking water for 2 weeks. Half of the rats received physiological saline containing 0.5%(w/v) oligomeric procyanidins (OPC) with various chain lengths purified from apples. At the end of the study, the rats were euthanized with isoflurane inhalation and blood was collected from vena cava between 11:00–14:00. The rats were perfused systemically with physiological saline for Oil Red O staining. Total cholesterol, high-density lipoprotein (HDL) cholesterol, triglyceride, and thiobarbituric acid reactive substance (TBARS) were determined enzymatically using commercially available kits (Wako Pure Chemical Industries, Osaka, Japan; Zeptometrix corporation, Buffalo, NY, USA). […]

Compound	IC50 (human LOX-1; DiI-oxLDL 10 µg/mL) [nM]	fluorescence of DiI-oxLDL in LOX-1-CHO cells (binding, microscopy) (human LOX-1; 300 ng/mL, DiI-oxLDL 10 µg/mL, Fig. 4A)	IC50 (human LOX-1; DiI-oxLDL 1 µg/mL, data not shown) [nM]	IC50 (human LOX-1; DiI-oxLDL 3 µg/mL, data not shown) [nM]	concentration at 2 days [1] [ng/mL]
Oc1cc(O)c2c(c1)OC(c1ccc(O)c(O)c1)C(O)C2c1c(O)cc2c(c1O)C(c1c(O)cc(O)c3c1OC(c1ccc(O)c(O)c1)C(O)C3)C(O)C(c1ccc(O)c(O)c1)O2 (stereo not drawn) [epicatechin(4β-6)epicatechin(4β-8)catechin]	54.2	–	–	–	–
Oc1cc(O)c2c(c1)O[C@H](c1ccc(O)c(O)c1)[C@H](O)[C@H]2c1c(O)cc(O)c2c1O[C@H](c1ccc(O)c(O)c1)[C@H](O)[C@H]2c1c(O)cc(O)c2c1O[C@H](c1ccc(O)c(O)c1)[C@H](O)C2 [procyanidin C1, epicatechin(4β-8)epicatechin(4β-8)epicatechin]	58.8	significantly attenuated	8.08	30	4.9 ± 1.9
Oc1cc(O)c2c(c1)O[C@H](c1ccc(O)c(O)c1)[C@H](O)[C@H]2c1c(O)cc(O)c2c1O[C@H](c1ccc(O)c(O)c1)[C@H](O)C2 [procyanidin B2, epicatechin(4β-8)epicatechin]	–	–	–	–	7.9 ± 1.8
Oc1cc(O)c2c(c1)OC(c1ccc(O)c(O)c1)C(O)C2c1c(O)cc(O)c2c1OC(c1ccc(O)c(O)c1)C(O)C2c1c(O)cc(O)c2c1OC(c1ccc(O)c(O)c1)C(O)C2 (stereo not drawn) [epicatechin(4β-8)epicatechin(4β-8)catechin]	47.3	–	–	–	–
Oc1cc(O)c2c(c1)OC(c1ccc(O)c(O)c1)C(O)C2c1c(O)cc2c(c1O)C(c1c(O)cc(O)c3c1OC(c1ccc(O)c(O)c1)C(O)C3)C(O)C(c1ccc(O)c(O)c1)O2 (stereo not drawn) [epicatechin(4β-6)epicatechin(4β-8)epicatechin]	84.2	–	–	–	–
